# Measured values from patent US9642819B2, “Low dosage serotonin 5-HT2A receptor agonist to suppress inflammation” (BOARD OF SUPERVISORS OF LOUISIANA STATE UNIVERSITY AND …, priority 2008, dated 2017).
# “Also recorded” adds a separate entry of the source. Read-outs that look alike come from different tables or passages of the source.
# Columns and labels:
# [1] = system: nuclear translocation of p65; test: Nuclear translocation of NF-κB subunit p65 in RASM cells; type: cell-based, rat; conditions: 1 nM, 24 hours or one hour before or together with TNF-α 10 ng/ml
# Procedure: Nuclear Translocation of p65. RASM cells were grown in M-199 medium+10% FBS until 50% confluent in 8 well chamber slides. Cells were treated with 1 nM (R)-DOI for various times as indicated, and TNF-α (10 ng/ml; tumor necrosis factor alpha) added. Thirty minutes after TNF-α treatment, cells were fixed and processed with rabbit anti p65 primary and Alexafluor 488-conjugated goat secondary antibodies as described in Zerfaoui et al. (2008) (Zerfaoui et al., 2008). Fluorescent signal was visualized on a Leica DMRA2 fluorescent microscope.
# Both ICAM-1 and VCAM-1 gene transcription during inflammatory processes is regulated by the transcription factor NF-κB (Collins et al., 1995). During this process, NF-κB must be activated, and then translocated from the cytoplasm to the nucleus, where it promotes gene transcription. To investigate whether 5-HT2A receptor stimulated inhibition of NF-κB activation and translocation might be a possible mechanism for blockade of proinflammatory gene expression changes, a series of immunohistochemical experiments were conducted examining p65 translocation in RASM cells. TNF-α treatment for 30 minutes caused the expected dramatic shift in localization of the p65 subunit of NF-κB from the cytoplasm to the nucleus (FIG. 7A). […]
# [2] = system: ICAM-1 gene expression; test: LPS stimulated ICAM-1 gene expression in primary rat aortic smooth muscle cells; type: cell-based; conditions: 60 minute pretreatment, 100 nM
# Procedure: All treatments with 5-HT2A receptor agonists occurred 1 hour prior to the addition of TNF-alpha (10 ng/ml) or LPS (100 ng or […]) depending on the experiment. All RNA isolations, cDNA synthesis, QPCR gene expression assays examining ICAM1, VCAM1, and IL6, and data analysis were performed as described above in Example 1, except the primers were different for the human cell experiment. The human gene PCR primer sequences and universal probe numbers were as follows: cyclophillin (control amplicon; Probe U64): forward primer, 5′-[…]-3′ (SEQ ID NO: 11), reverse primer, 5′-[…]-3′ (SEQ ID NO: 12); and human ICAM-1 (Probe U71, intracellular adhesion molecule 1): forward primer, 5′-[…]-3′ (SEQ ID NO: 13), reverse primer, 5′-[…]-3′ (SEQ ID NO: 14).
# The effect of (R)-DOI (60 minute pretreatment) on the expression of ICAM-1 in primary rat aortic smooth muscle cells after stimulation with LPS was examined. […] At a higher dose of LPS (1 μg), there was no effect of (R)-DOI on the increase in ICAM-1.
# [3] = system: ICAM-1, VCAM-1, and IL-6 gene expression; test: TNF-α induced proinflammatory gene expression (ICAM-1, VCAM-1, IL-6) by Q-RT-PCR in RASM cells; type: cell-based, rat
# Procedure: RASM cells and treatment. Rat aortic smooth muscle (RASM) cells were isolated from adult 180 g male Sprague-Dawley rats and provided by the Cell and Molecular Core Facility in the Department of Pharmacology at LSUHSC-NO. Isolated RASM cells were grown in M-199 media containing 10% fetal bovine serum (Gibco), 100 units/mL penicillin, and 100 µg/mL streptomycin, and incubated at 37° C. in 5% CO2. Cells for all assays were used between passages 3 and 5. Prior to treatments, cells were grown in M-199 media with 10% fetal bovine serum (FBS) until 30-50% confluent. For most assays, cells were treated with (R)-DOI, or other drugs as indicated, at specific concentrations for 24 hours, followed by TNF-α (10 ng/ml) and (R)-DOI at the same pretreatment concentrations in fresh M-199 media. After another 24 hours, the cells were scraped, pelleted, and processed for RNA.
# RNA isolation and Quantitative Realtime-PCR. RNA was extracted from cells using Illustra RNAspin Mini kits from GE Healthcare Life Sciences (Piscataway, N.J.) following protocols supplied by the manufacturer. First strand cDNA was generated using the ImProm-II cDNA synthesis kit (Promega) following the manufacturers protocols. Q-RT-PCR was performed using the ProbeLibrary system from Roche (Indianapolis, Ind.) in combination with the HotStart-IT probe qpcr master mix from USB Biological (Cleveland, Ohio) following manufactures protocols.
# Primers were synthesized by IDT (Coralville, Iowa). ProbeLibrary probes from Roche were: U3, U74, U13, U106, U79 for 5-HT2AR, ICAM-1, VCAM-1, IL-6, and cyclophillin B, respectively. Quantitative determination of gene expression levels using a 2-step cycling protocol was performed on a MyIQ-5 Cycler (Bio-Rad, Hercules Calif.). Relative gene expression levels were calculated using the 2^[−ΔΔC(T)] method. Levels of all targets from the test samples were normalized to rat cyclophillin B expression.
# To examine the effects of 5-HT2A receptor activation on TNF-α mediated proinflammatory gene expression, RASM cells were pretreated with (R)-DOI, a selective 5-HT2 receptor agonist, as described above. Dose-response curves were determined for the effects on ICAM-1, VCAM-1, and IL-6 gene expression for twelve different concentrations of (R)-DOI ranging from 0.1 pM to 100 nM, with each experiment repeated in triplicate. In FIGS. 1A-1C, the Y-axis represents a percent of TNF-α for the dose of (R)-DOI indicated on the X-axis.
# [4] = system: ICAM-1 gene expression; test: TNF-α induced ICAM-1 gene expression in rat C6 glioma cells; type: cell-based; conditions: 1 nM and 50 nM prior to TNF-α
# Procedure: (§1) Experiments were conducted to analyze for the effect of 5-HT2A receptor activation on proinflammatory marker expression in other cell types. Human neuroblastoma cells (SHSY5Y) and rat glioma cells (C6) can be obtained from the American Type Culture Collection (Manassas, Va.), but were provided Purdue University. The cells were grown in DMEM+10% FBS. DMEM was made and provided by the Cell and Molecular Core of the Mentoring in Cardiovascular Biology COBRE center at LSUHSC-NO. FBS was purchased from Invitrogen (Carlsbad, Calif.). Primary rat aortic endothelial cells were prepared fresh and provided by the Cell and Molecular Core of the Mentoring in Cardiovascular Biology COBRE center at LSUHSC-NO. Cells were tested at passages 3-4. Cells were grown in endothelial cell growth medium (Cell Applications, Inc.). Primary rat bronchoaveolar macrophage cells were obtained by lung lavage from rats and used at day 3 or 4 post plating in DMEM+10% FBS.
# (§2) All treatments with 5-HT2A receptor agonists occurred 1 hour prior to the addition of TNF-alpha (10 ng/ml) or LPS (100 ng or 1 mg) depending on the experiment. All RNA isolations, cDNA synthesis, QPCR gene expression assays examining ICAM1, VCAM1, and IL6, and data analysis were performed as described above in Example 1, except the primers were different for the human cell experiment. […]
# [5] = system: IL-6 expression; test: TNF-α induced IL-6 expression in rat primary aortic endothelial cells; type: cell-based; conditions: 10 pM, 60 minutes prior to TNF-alpha 10 ng/ml
# Procedure: as §1, §2
compound,measurement,setting,value
"COc1cc(C[C@@H](C)N)c(OC)cc1I [(R)-DOI, (R)-1-(2,5-dimethoxy-4-iodophenyl)-2-aminopropane]",effect on TNF-α induced p65 nuclear translocation,[1],completely blocked
same,effect on ICAM-1 induction by low dose of LPS,[2]; LPS 100 ng,able to block the response
same,effect on ICAM-1 increase by higher dose of LPS,[2]; LPS 1 μg,no effect
same,effect of pretreatment on TNF-α induced increase in proinflammatory gene expression,[3]; 1 nM prior to TNF-α 10 ng/ml,completely blocked; also recorded: completely inhibits
same,IC50,"[3]; RASM cells, TNF-α 10 ng/ml, ICAM-1, VCAM-1, IL-6, read-out: IC50 for inhibition of TNF-α mediated proinflammatory markers",0.01 to 0.02 nM
same,IC50,"[3]; Rattus norvegicus, RASM cells, TNF-α 10 ng/ml, ICAM-1, VCAM-1, IL-6, read-out: IC50 for inhibition of TNF-α mediated proinflammatory markers",~0.02 nM
same,IC50,"[3]; Rattus norvegicus, read-out: IC50 in blocking TNF-α mediated inflammation",~0.02 nM
same,potency of inhibiting inflammatory marker gene expression relative to any current drug on the market,[3]; greater,at least 100 times
same,potency relative to the more effective current anti-inflammatory agents,[3]; more potent,~300 fold
same,"effect of compound alone on baseline expression of ICAM-1, VCAM-1, IL-6","[3]; without TNF-α, 1 nM",no effect
same,effect on ICAM-1 gene expression in rat glioma cells,[4],blocked
same,effect on TNF-α-induced IL-6 expression in aortic endothelial cells,[5],potently inhibited
